Data set [1] is described as follows: Toxicity in BALB/c mouse xenografted with human NCI-H1581 cells assessed as change in spleen weight at 20 mg/kg,SC administrated once daily for 12 days. Type of data set: organism-based. To be noted: in vivo, 288 h, time 12 day.
The test system of data set [2] is L6. Put plainly: Induction of apoptosis in FGF2-induced rat L6 cells stably expressing human full-length FGFR1c assessed as downregulation of BCL-2 expression at 50 uM incubated for 24 hrs by Western blotting analysis. Type of data set: functional, cell-based.
Data set [3] relates to NCI-H1581. The data set is described as follows: Antitumor activity against human NCI-H1581 cells xenografted BALB/c mouse model assessed as inhibition of tumor proliferation by measuring decrease in Ki67 positive cells at 20 mg/kg,SC administrated once daily for 12 days. The class given is functional, organism-based. To be noted: time 12.0 day. (Xenograft models place foreign cells or tissue in a host animal.)

A short description of data set [4]: Half life in immunized Sprague-Dawley rat at 1.5 mg/kg,SC administration measured upto 24 hrs by fluorescence based microplate reader assay. The class given is ADME, organism-based. Particulars: in vivo.
For data set [5], the system named is L6. The data set is described as follows: Binding affinity to human full-length wild type FGFR1c stably expressed in rat L6 cells assessed as fluorescence intensity at 10 uM by antibody recruiting based flow cytometry. Type of data set: cell-based. For orientation: Flow cytometry measures light scatter and fluorescence of single cells or particles in a stream.

Data set [6] deals with L6. The data set is described as follows: Binding affinity to human full-length wild type FGFR1c stably expressed in rat L6 cells assessed as increase in green fluorescence signal incubated for 1 hr by Alexa-488 staining based confocal fluorescence microscopic analysis. The class given is cell-based.
The test system of data set [7] is L6. The data set is described as follows: Induction of cell lysis in rat L6 cells at 1 uM incubated for 1 hr by complement dependent cytotoxicity based CCK-8 assay relative to control. The class given is functional. (In general: Tetrazolium assays rely on reduction of a dye to a coloured formazan, in cell work by metabolically active cells.)
Data set [8] in a line: Toxicity in BALB/c mouse xenografted with human NCI-H1581 cells assessed as inflammation in kidney at 20 mg/kg,SC administrated once daily for 12 days by hematoxylin and eosin staining based analysis. The class given is organism-based. Particulars: in vivo, 288 h, time 12 day.
Data set [9] concerns NCI-H1581. Put plainly: Antitumor activity against human NCI-H1581 cells xenografted BALB/c mouse model assessed as inhibition of tumor growth at 20 mg/kg,SC administrated once daily for 12 days relative to control. To be noted: NCI-H1581, 288 h, time 12 day. The class given is functional.
The subject of data set [10] is NCI-H1581. The data set is described as follows: Induction of cell lysis in human NCI-H1581 cells at 1 uM incubated for 1 hr by complement dependent cytotoxicity based CCK-8 assay relative to control. Type of data set: functional.

SMILES strings stand for the structures. The source made the active and inactive calls. No cut-off for these calls is given here. Where a SMILES comes first, the peptide text is derived from it. The star is where a group is joined. X1 = O=[N+]([O-])c1ccc(OCCOCCOCCOCCOCCOCCN*)c([N+](=O)[O-])c1

Consider one compound from ChEMBL document CHEMBL5584321, “Chemoenzymatic Synthesis of DNP-Functionalized FGFR1-Binding Peptides as Novel Peptidomimetic Immunotherapeutics for Treating Lung Cancer” (J Med Chem, 2024).

The term half-life denotes the time in which the quantity being followed falls by half. Read a low half-life as fast loss. What is called inhibition in vivo is the drop in the measured response relative to a control, in per cent.

`CC(C)C[C@H](NC(=O)[C@H](C)NC(=O)[C@@H](NC(=O)[C@H](Cc1ccc(O)cc1)NC(=O)[C@H](Cc1c[nH]c2ccccc12)NC(=O)[C@H](CO)NC(=O)[C@H](CO)NC(=O)[C@H](Cc1ccc(O)cc1)NC(=O)[C@H](CCCCN)NC(=O)[C@H](CCCNC(=N)N)NC(=O)[C@H](CO)NC(=O)[C@H](CCCNC(=N)N)NC(=O)[C@@H](N)Cc1ccc(O)cc1)C(C)C)C(=O)N[C@@H](CCCCN)C(=O)N[C@@H](CCCNC(=N)N)C(=O)N[C@@H](CC(C)C)C(=O)N1CCC[C@H]1C(=O)N[C@@H](CCC(=O)O)C(=O)N[C@H](C(=O)NCC(=O)NCC(=O)NCC(=O)NCCOCCOCCOCCOCCOCCOc1ccc([N+](=O)[O-])cc1[N+](=O)[O-])[C@@H](C)O` (H-YRSRKYSSWYVALKRLPETGGG-X1): the Activity result is “Non-Toxic” in [1], “Non-Toxic” in data set [8] and 44.5% in the data set on NCI-H1581 [10]. Further, the result with L6 [2], in the data set on NCI-H1581 [3] and in the data set on L6 [6] was Active. The half-life in data set [4] was 18.1 h. The Flu intensity with L6 [5] is 1.8 10^4No_unit. In the data set on L6 [7], the result was inactive. Besides, the inhibition in vivo at 20 mg/kg in the data set on NCI-H1581 [9] turned out to be 72.7%.
